Reference: US20120148595A1, “GABA-LINKED ANTHRACYCLINE-LIPID CONJUGATES” (Luitpold Pharmaceuticals, Inc., priority 2009, published 2012)

Assays:
M109-Lung Tumor = M109-Lung Tumor Model (Table 5, second study with OOC-GABA-doxorubicin); format: in vivo, mouse
Excerpt: The dosing schedule was Q3D×5.

tumor growth = assay: anti-tumor activity of GABA-linked conjugate compared to the unconjugated anticancer agent (model not given); format: in vivo; conditions: model not specified
Excerpt: The anti-tumor activity of LOC-GABA-doxorubicin was studied in three tumor models.

CCCCCCCC/C=C\CCCCCCCCOC(=O)NCCCC(=O)N[C@H]1C[C@H](O[C@H]2C[C@](O)(C(=O)CO)Cc3c(O)c4c(c(O)c32)C(=O)c2c(OC)cccc2C4=O)O[C@@H](C)[C@H]1O [OOC-GABA-doxorubicin, oleyl alcohol-GABA-doxorubicin]
Complete Regressions (M109-Lung Tumor; 50 mg/kg i.v. Q3D×5): 0 | Days Delay T-C (M109-Lung Tumor; 50 mg/kg i.v. Q3D×5): 10.0 days | Drug-related Deaths (M109-Lung Tumor; 50 mg/kg i.v. Q3D×5): 0/5 | Complete Regressions (M109-Lung Tumor; 75 mg/kg i.v. Q3D×5): 0 | Days Delay T-C (M109-Lung Tumor; 75 mg/kg i.v. Q3D×5): 8.9 days | Drug-related Deaths (M109-Lung Tumor; 75 mg/kg i.v. Q3D×5): 0/5 | Complete Regressions (M109-Lung Tumor; 100 mg/kg i.v. Q3D×5): 0 | Days Delay T-C (M109-Lung Tumor; 100 mg/kg i.v. Q3D×5): 10.3 days | Drug-related Deaths (M109-Lung Tumor; 100 mg/kg i.v. Q3D×5): 1/5 | Complete Regressions (M109-Lung Tumor; 125 mg/kg i.v. Q3D×5): 0 | Drug-related Deaths (M109-Lung Tumor; 125 mg/kg i.v. Q3D×5): 3/5 | anti-tumor activity compared to doxorubicin (M109-Lung Tumor; M109 mouse lung carcinoma model): superior anti-tumor activity

CCC=CCC=CCC=CCC=CCC=CCC=CCCC(=O)NCCCC(=O)OC(C(=O)OC1CC2(O)C(OC(=O)c3ccccc3)C3C4(OC(C)=O)COC4CC(O)C3(C)C(=O)C(OC(C)=O)C(=C1C)C2(C)C)C(NC(=O)c1ccccc1)c1ccccc1 (stereo not shown)
anti-tumor activity compared to the unconjugated drug (tumor growth): superior activity in inhibiting tumor growth
